From the NIST ThermoML archive (doi:10.1016/j.tca.2009.06.015)
± gives the expanded uncertainty stated by the source.

What was measured:
[1] = refractive index (Na D-line) (dimensionless); xn = mol fraction of the nth substance listed; details: 101 kPa, Liquid, Standard Abbe refractometry
[2] = xn = mol fraction of the nth substance listed; details: 101 kPa, Liquid; for viscosity: Capillary tube (Ostwald / Ubbelohde) method; for mass density: Vibrating tube method

CCC(C)O (configuration not stated) [butan-2-ol] + CC#N
Details	mass density, [2] [kg/m3]	refractive index, [1]	viscosity, [2] [mPa·s]
293.15 K, x2 = 0	806.57 ± 0.31	1.3966 ± 0.0021	3.912 ± 0.046
293.15 K, x2 = 0.0844	804.53 ± 0.31	1.3952 ± 0.0021	2.503 ± 0.031
293.15 K, x2 = 0.1644	802.5 ± 0.3	1.393 ± 0.0021	1.654 ± 0.019
293.15 K, x2 = 0.2516	800.41 ± 0.31	1.3899 ± 0.0021	1.376 ± 0.014
293.15 K, x2 = 0.3369	798.33 ± 0.31	1.386 ± 0.0021	1.089 ± 0.011
293.15 K, x2 = 0.4444	795.68 ± 0.31	1.3804 ± 0.0021	0.8564 ± 0.0088
293.15 K, x2 = 0.5382	793.35 ± 0.31	1.3751 ± 0.0021	0.6953 ± 0.0072
293.15 K, x2 = 0.6425	790.7 ± 0.3	1.3686 ± 0.002	0.5565 ± 0.0061
293.15 K, x2 = 0.761	788.1 ± 0.3	1.361 ± 0.002	0.4636 ± 0.0052
293.15 K, x2 = 0.8715	785.92 ± 0.31	1.3534 ± 0.002	0.3984 ± 0.0043
293.15 K, x2 = 0.9588	783.48 ± 0.31	1.3467 ± 0.0021	0.3663 ± 0.004
298.15 K, x2 = 0	802.56 ± 0.31	1.3946 ± 0.0021	3.132 ± 0.039
298.15 K, x2 = 0.0844	800.28 ± 0.31	1.3918 ± 0.0021	2.135 ± 0.024
298.15 K, x2 = 0.1644	798.07 ± 0.31	1.3893 ± 0.0021	1.574 ± 0.015
298.15 K, x2 = 0.2516	795.79 ± 0.31	1.3865 ± 0.0021	1.218 ± 0.013
298.15 K, x2 = 0.3369	793.63 ± 0.31	1.383 ± 0.0021	0.992 ± 0.01
298.15 K, x2 = 0.4444	790.96 ± 0.31	1.3782 ± 0.002	0.7937 ± 0.0082
298.15 K, x2 = 0.5382	788.5 ± 0.3	1.3734 ± 0.0021	0.6498 ± 0.0068
298.15 K, x2 = 0.6425	785.67 ± 0.31	1.3674 ± 0.0021	0.518 ± 0.0055
298.15 K, x2 = 0.761	782.65 ± 0.31	1.3597 ± 0.0021	0.4216 ± 0.0046
298.15 K, x2 = 0.8715	779.99 ± 0.31	1.3518 ± 0.0021	0.3868 ± 0.0042
298.15 K, x2 = 0.9588	777.71 ± 0.31	1.3448 ± 0.0021	0.3632 ± 0.004
303.15 K, x2 = 0	798.26 ± 0.31	1.3924 ± 0.0021	2.534 ± 0.029
303.15 K, x2 = 0.0844	795.95 ± 0.31	1.3902 ± 0.0021	1.794 ± 0.02
303.15 K, x2 = 0.1644	793.74 ± 0.31	1.3886 ± 0.0021	1.383 ± 0.015
303.15 K, x2 = 0.2516	791.38 ± 0.31	1.386 ± 0.0021	1.082 ± 0.011
303.15 K, x2 = 0.3369	789.07 ± 0.31	1.3829 ± 0.0021	0.8873 ± 0.0093
303.15 K, x2 = 0.4444	786.17 ± 0.31	1.3779 ± 0.0021	0.7129 ± 0.0075
303.15 K, x2 = 0.5382	783.62 ± 0.31	1.3722 ± 0.002	0.5936 ± 0.0063
303.15 K, x2 = 0.6425	780.73 ± 0.31	1.3656 ± 0.002	0.4865 ± 0.0052
303.15 K, x2 = 0.761	777.45 ± 0.31	1.3575 ± 0.002	0.4019 ± 0.0044
303.15 K, x2 = 0.8715	774.43 ± 0.31	1.3495 ± 0.002	0.3612 ± 0.0041
303.15 K, x2 = 0.9588	772.05 ± 0.31	1.3426 ± 0.002	0.3414 ± 0.0039
308.15 K, x2 = 0	793.96 ± 0.31	1.3905 ± 0.0021	2.172 ± 0.024
308.15 K, x2 = 0.0844	791.55 ± 0.31	1.3876 ± 0.0021	1.572 ± 0.015
308.15 K, x2 = 0.1644	789.27 ± 0.31	1.3853 ± 0.0021	1.213 ± 0.012
308.15 K, x2 = 0.2516	786.77 ± 0.31	1.3825 ± 0.0021	0.9642 ± 0.0098
308.15 K, x2 = 0.3369	784.37 ± 0.31	1.3799 ± 0.0021	0.8021 ± 0.0082
308.15 K, x2 = 0.4444	781.35 ± 0.31	1.3753 ± 0.0021	0.6524 ± 0.0068
308.15 K, x2 = 0.5382	778.69 ± 0.31	1.3713 ± 0.002	0.5479 ± 0.0058
308.15 K, x2 = 0.6425	775.68 ± 0.31	1.3659 ± 0.002	0.4533 ± 0.0048
308.15 K, x2 = 0.761	772.27 ± 0.31	1.3592 ± 0.002	0.379 ± 0.0041
308.15 K, x2 = 0.8715	768.99 ± 0.31	1.351 ± 0.002	0.3437 ± 0.0039
308.15 K, x2 = 0.9588	766.51 ± 0.31	1.3423 ± 0.002	0.3238 ± 0.0037

CCCC(C)O (configuration not stated) [pentan-2-ol] + CC#N
Details	mass density, [2] [kg/m3]	refractive index, [1]	viscosity, [2] [mPa·s]
293.15 K, x2 = 0	809.29 ± 0.31	1.406 ± 0.0021	4.298 ± 0.86
293.15 K, x2 = 0.116	806.75 ± 0.31	1.4035 ± 0.0021	2.544 ± 0.51
293.15 K, x2 = 0.1727	805.46 ± 0.31	1.402 ± 0.0021	2.093 ± 0.42
293.15 K, x2 = 0.2827	802.79 ± 0.31	1.3981 ± 0.0021	1.534 ± 0.31
293.15 K, x2 = 0.3546	801.01 ± 0.31	1.3951 ± 0.002	1.262 ± 0.25
293.15 K, x2 = 0.4458	798.66 ± 0.31	1.3908 ± 0.002	1.008 ± 0.2
293.15 K, x2 = 0.5366	796.26 ± 0.31	1.3858 ± 0.002	0.81 ± 0.16
293.15 K, x2 = 0.6488	793.09 ± 0.31	1.3779 ± 0.002	0.6391 ± 0.13
293.15 K, x2 = 0.7671	789.52 ± 0.31	1.3674 ± 0.002	0.5048 ± 0.1
293.15 K, x2 = 0.8793	786.03 ± 0.31	1.3561 ± 0.002	0.4119 ± 0.083
293.15 K, x2 = 0.9578	783.59 ± 0.31	1.3478 ± 0.0021	0.3705 ± 0.074
298.15 K, x2 = 0	805.24 ± 0.31	1.4045 ± 0.0039	3.478 ± 0.7
298.15 K, x2 = 0.116	802.61 ± 0.31	1.4012 ± 0.0038	2.17 ± 0.43
298.15 K, x2 = 0.1727	801.25 ± 0.31	1.3999 ± 0.0037	1.804 ± 0.36
298.15 K, x2 = 0.2827	798.55 ± 0.31	1.3965 ± 0.0035	1.362 ± 0.27
298.15 K, x2 = 0.3546	796.68 ± 0.31	1.3941 ± 0.0034	1.125 ± 0.23
298.15 K, x2 = 0.4458	794.17 ± 0.31	1.3901 ± 0.0032	0.9044 ± 0.18
298.15 K, x2 = 0.5366	791.6 ± 0.3	1.3848 ± 0.003	0.7392 ± 0.15
298.15 K, x2 = 0.6488	788.28 ± 0.31	1.3764 ± 0.0027	0.5884 ± 0.12
298.15 K, x2 = 0.7671	784.54 ± 0.31	1.3657 ± 0.0023	0.4715 ± 0.094
298.15 K, x2 = 0.8793	780.88 ± 0.31	1.3548 ± 0.0021	0.391 ± 0.078
298.15 K, x2 = 0.9578	778.28 ± 0.31	1.3461 ± 0.0021	0.3537 ± 0.071
303.15 K, x2 = 0	801.13 ± 0.31	1.3724 ± 0.004	–
303.15 K, x2 = 0.116	798.39 ± 0.31	1.3715 ± 0.0038	1.474 ± 0.3
303.15 K, x2 = 0.1727	796.93 ± 0.31	1.3707 ± 0.0037	1.288 ± 0.26
303.15 K, x2 = 0.2827	794.05 ± 0.31	1.3694 ± 0.0035	1.069 ± 0.21
303.15 K, x2 = 0.3546	792.08 ± 0.31	1.3684 ± 0.0034	0.9367 ± 0.19
303.15 K, x2 = 0.4458	789.54 ± 0.31	1.3666 ± 0.0032	0.7975 ± 0.16
303.15 K, x2 = 0.5366	786.91 ± 0.31	1.3641 ± 0.0029	0.6615 ± 0.13
303.15 K, x2 = 0.6488	783.41 ± 0.31	1.3608 ± 0.0026	0.5492 ± 0.11
303.15 K, x2 = 0.7671	779.52 ± 0.31	1.3561 ± 0.0023	0.4429 ± 0.089
303.15 K, x2 = 0.8793	775.68 ± 0.31	1.35 ± 0.0021	0.3617 ± 0.072
303.15 K, x2 = 0.9578	772.96 ± 0.31	1.3433 ± 0.0021	0.3311 ± 0.066
308.15 K, x2 = 0	796.94 ± 0.31	1.3703 ± 0.0021	–
308.15 K, x2 = 0.116	794.1 ± 0.31	1.3694 ± 0.0021	1.296 ± 0.26
308.15 K, x2 = 0.1727	792.65 ± 0.31	1.3687 ± 0.0021	1.15 ± 0.23
308.15 K, x2 = 0.2827	789.63 ± 0.31	1.3679 ± 0.0021	0.9576 ± 0.19
308.15 K, x2 = 0.3546	787.6 ± 0.31	1.367 ± 0.0021	0.846 ± 0.17
308.15 K, x2 = 0.4458	784.92 ± 0.31	1.3657 ± 0.002	0.7168 ± 0.14
308.15 K, x2 = 0.5366	782.17 ± 0.31	1.3637 ± 0.002	0.6057 ± 0.12
308.15 K, x2 = 0.6488	778.55 ± 0.31	1.3605 ± 0.002	0.5051 ± 0.1
308.15 K, x2 = 0.7671	774.47 ± 0.31	1.3557 ± 0.002	0.4111 ± 0.082
308.15 K, x2 = 0.8793	770.45 ± 0.31	1.3491 ± 0.0021	0.3442 ± 0.069
308.15 K, x2 = 0.9578	767.48 ± 0.31	1.3417 ± 0.0021	0.3202 ± 0.064
